Data: ChEMBL document CHEMBL1641486, “Synthesis of 3'-azido-3'-deoxythymidine (AZT)--Cinchona alkaloid conjugates via click chemistry: Toward novel fluorescent markers and cytostatic agents” (2011)
Converted amounts (≈) assume the structure as drawn.

The compounds below were run on KB (assay: Cytotoxicity against human KB cells assessed as inhibition of protein biosynthesis). Conditions: read-out: ED50 (the source's name).
Format: functional

Compound | EC50 [µg/mL]
COc1ccc2nccc([C@@H](O)[C@@H]3CC4CCN3CC4c3cn([C@H]4C[C@H](n5cc(C)c(=O)[nH]c5=O)O[C@@H]4CO)nn3)c2c1 (some centres undefined) | 1.3 (≈ 2.2 µM)
COc1ccc2nccc([C@H](O)[C@H]3CC4CCN3CC4c3cn([C@H]4C[C@H](n5cc(C)c(=O)[nH]c5=O)O[C@@H]4CO)nn3)c2c1 (some centres undefined) | 12 (≈ 20.4 µM)
Cc1cn([C@H]2C[C@H](n3cc(C4CN5CCC4C[C@H]5[C@H](O)c4ccnc5ccccc45)nn3)[C@@H](CO)O2)c(=O)[nH]c1=O (some centres undefined) | 11.6 (≈ 20.7 µM)
Cc1cn([C@H]2C[C@H](n3cc(C4CN5CCC4C[C@@H]5[C@@H](O)c4ccnc5ccccc45)nn3)[C@@H](CO)O2)c(=O)[nH]c1=O (some centres undefined) | 21 (≈ 37.5 µM)
C=CC1CN2CCC1C[C@H]2[C@H](OCc1cn([C@H]2C[C@H](n3cc(C)c(=O)[nH]c3=O)O[C@@H]2CO)nn1)c1ccnc2ccc(OC)cc12 (some centres undefined) | 2.1 (≈ 3.33 µM)
C=CC1CN2CCC1C[C@@H]2[C@@H](OCc1cn([C@H]2C[C@H](n3cc(C)c(=O)[nH]c3=O)O[C@@H]2CO)nn1)c1ccnc2ccc(OC)cc12 (some centres undefined) | 3.9 (≈ 6.19 µM)
C=CC1CN2CCC1C[C@H]2[C@H](OCc1cn([C@H]2C[C@H](n3cc(C)c(=O)[nH]c3=O)O[C@@H]2CO)nn1)c1ccnc2ccccc12 (some centres undefined) | > 100
C=CC1CN2CCC1C[C@@H]2[C@@H](OCc1cn([C@H]2C[C@H](n3cc(C)c(=O)[nH]c3=O)O[C@@H]2CO)nn1)c1ccnc2ccccc12 (some centres undefined) | > 100
Nc1ccn([C@@H]2O[C@H](CO)[C@@H](O)[C@@H]2O)c(=O)n1 [CYTARABINE] | 0.99 (≈ 4.07 µM)
